In BigSolDB 2.1:

Cc1nc(-c2ccc(OCC(C)C)c(C#N)c2)sc1C(=O)O
solubility (mole fraction)
Settings | 293.15 K | 298.15 K | 303.15 K | 308.15 K | 313.15 K | 318.15 K | 323.15 K | 328.15 K
in acetone | 0.00623 | 0.00743 | 0.00921 | 0.0107 | 0.0129 | 0.0147 | 0.0162 | 0.0171
in ethanol | 0.00122 | 0.00177 | 0.00269 | 0.00401 | 0.00584 | 0.00836 | 0.0109 | 0.0143
in ethyl acetate | 0.00376 | 0.00456 | 0.00516 | 0.00643 | 0.00732 | 0.00828 | 0.00975 | 0.0114
in methanol | 0.000524 | 0.000856 | 0.00117 | 0.00162 | 0.00229 | 0.00325 | 0.0045 | 0.00685
